Consider two compounds from patent US7094786B2, “Method of treating nausea, vomiting, retching or any combination thereof” (Dynogen Pharmaceuticals, Inc., priority 2003, dated 2006).

SMILES strings stand for the structures.

Assay [1] deals with cisplatin-induced retching and vomiting. In words: Cisplatin-induced emesis in the ferret. The following applies: for Latency: first emetic event; for Effect on latency of the first emetic response (in words): across doses tested i.p.; for Effect on number of cisplatin-induced emetic events (in words): across doses tested i.p. (ondansetron 5, 10 mg/kg; MCI-225 1, 10, 30 mg/kg); for Retches (360 min) / Vomits (360 min) / Total Events: male ferrets; for Total Events: 360 min. It is filed as in vivo, ferret (Mustela putariofuro). As for the experimental part:
The ability of MCI-225 to reduce retching and vomiting in an accepted model of cytotoxin-induced emesis in the ferret was assessed. Specifically, the experiments described herein investigated the effect of MCI-225 on retching and vomiting induced by cisplatin. Ondansetron was used as a positive control in the model, in view of its known antiemetic activity. Adult male ferrets (Mustela putariofuro) weighing 1200–1880 g were purchased from Triple F Farms (Sayre, Pa.) and housed in individual cages at standardized conditions (12:12 h light/dark cycle and 21–23° C.). Prior to the experiments, the ferrets were allowed a 7–10 day acclimatization period to the animal facility. The ferrets were fed a carnivore diet with free access to food and water throughout the course of the study. The use of the ferret model of emesis and the drug treatment were preapproved in accordance with facility standards. A cisplatin solution was prepared by adding preheated (70° C.) saline to cisplatin powder (Sigma-Aldrich Co.) and stirring or sonicating at 40° C. until dissolved. Following administration of the cisplatin and either MCI-225, ondansetron or vehicle alone, the occurrence of retching and vomiting was monitored for a period of 6 hours. Retching was defined as the number of forceful rhythmic contractions of the abdomen occurring with the animal in characteristic posture, but not resulting in the expulsion of upper gastrointestinal tract contents (Watson et al., British Journal of Pharmacology, 115(1): 84–94 (1994)). Vomiting was defined as the forceful oral expulsion of upper gastrointestinal contents. The latency of the retching or vomiting response and the number of episodes were recorded for each animal and summarized for each experimental group (Wright et al., Infect. Immun., 68(4): 2386–9 (2000)). Following one hour of acclimation to the observation cage, ferrets received an intraperitoneal (i.p.) injection of cisplatin (5 mg/kg in 5 mL) followed in about 2 minutes by i.p. injection of a single dose of MCI-225 or ondansetron (Rudd and Naylor, Eur. J. Pharmacol., 322: 79–82 (1997)). Dose-response effects of MCI-225 dosed at 1, 10 and 30 mg/kg i.p. in a 0.5 ml/kg solution or ondansetron dosed at 5 and 10 mg/kg i.p. in a 0.5 mL/kg solution were studied. Each animal received a single-dose drug treatment. In addition, three animals received an initial dose (30 mg/kg i.p.) and a second MCI-225 injection (30 mg/kg i.p.) 180 minutes following the initial dose. Control animals were treated with cisplatin followed by vehicle alone (propanediol dosed in a 0.5 mL/kg solution). All groups were randomized.

Assay [2] relates to Monoamine Oxidase-A (MAO-A). The following applies: cited from earlier work.
In assay [3] the test system is Monoamine Oxidase-B (MAO-B). The settings on record: cited from earlier work.
Another assay concerns the target T1, 5-HT3 receptor (Mus musculus, UniProt P23979).
T1 construct: host or cells: N1E-115 mouse neuroblastoma cells
T1 sequence (P23979 24-489): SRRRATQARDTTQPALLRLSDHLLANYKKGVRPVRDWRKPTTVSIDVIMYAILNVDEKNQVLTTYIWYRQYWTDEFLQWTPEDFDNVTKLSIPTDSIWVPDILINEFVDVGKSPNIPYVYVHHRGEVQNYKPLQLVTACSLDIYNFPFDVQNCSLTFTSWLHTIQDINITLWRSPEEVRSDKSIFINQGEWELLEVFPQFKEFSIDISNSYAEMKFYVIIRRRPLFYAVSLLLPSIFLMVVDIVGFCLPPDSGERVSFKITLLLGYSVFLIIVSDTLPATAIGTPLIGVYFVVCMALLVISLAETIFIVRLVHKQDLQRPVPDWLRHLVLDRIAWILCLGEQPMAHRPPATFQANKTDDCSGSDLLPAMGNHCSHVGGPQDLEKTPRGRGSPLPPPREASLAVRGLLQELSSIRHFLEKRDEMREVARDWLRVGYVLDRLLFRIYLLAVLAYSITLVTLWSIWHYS
The settings on record: radioligand binding; read-out: Ki, affinity for the 5-HT3 receptor; cited from earlier work.

For assay [4], the system named is α1, α2, β1, β2, 5-HT1, 5-HT1A, 5-HT1c, 5-HT2, 5-HT4, 5-HT6, 5-HT7, D1, D2, Muscarinic, M1, M2, M3, Nicotonic, H1, H2, GABA-A, GABA-B, BZP, Opiate, CRF and …. The settings on record: all receptors tested other than 5-HT3; read-out: IC50, radioligand binding to additional receptors; cited from earlier work.
A further assay concerns muscarinic receptors. The settings on record: cited from earlier work.
The mark [5] stands for this setting: 10 mg/kg i.p. single dose after cisplatin 5 mg/kg i.p.
Setting [6] is: 5 mg/kg i.p. single dose after cisplatin 5 mg/kg i.p.

By Ki is commonly meant a measure of affinity in units of concentration, obtained from inhibition or displacement. A word on the IC50: it is the concentration at which inhibition is half-maximal. Consider `Cc1cc2c(-c3ccccc3F)nc(N3CCNCC3)nc2s1` [MCI-225, 4-(2-fluorophenyl)-6-methyl-2-(1-piperazinyl)thieno[2,3-d]pyrimidine], for which the “Latency” value in assay [1] (1 mg/kg i.p. single dose after cisplatin 5 mg/kg i.p.) is reported as 186 ± 35 min; in assay [1] (setting [5]) it was 192 ± 57 min; in assay [1] (30 mg/kg b.i.d i.p. (two doses, 180-min interval) after cisplatin 5 mg/kg i.p.), 360 ± 0 min; in assay [1] (30 mg/kg i.p. single dose after cisplatin 5 mg/kg i.p.), 287 ± 38 min. Also, in assay [1], the “Effect on latency of the first emetic response (in words)” value is recorded as “increase in the latency of the response”. The “Effect on number of cisplatin-induced emetic events (in words)” value in assay [1] is “dose-dependent reduction in the retches and vomits”. The “Overall antiemetic efficacy (conclusion)” value in assay [1] (similar dose range as ondansetron) was “effective at reducing retching and vomiting”. Also, the “Emetic response (in words)” value in assay [1] (two doses of 30 mg/kg, b.i.d at a 180-min interval) is “eliminated”. Moreover, in assay [2], the “Inhibition of MAO-A activity” value is listed as “did not inhibit”. Further, in assay [3], the “Inhibition of MAO-B activity” value is on record as “did not inhibit”. Further, the Ki at 5-HT3 receptor was under 100 nM. Moreover, the IC50 in assay [4] was over 1000 nM. Further, in the assay on muscarinic receptors, the Anticholinergic activity entry is “substantially no anticholinergic activity”.

In the case of `Cc1nccn1CC1CCc2c(c3ccccc3n2C)C1=O` (centres unmarked) [Ondansetron, ondansetron], in assay [1] (setting [6]), the “Latency” value was 288 ± 4 min, the “Retches (360 min)” value came out at 11.2 ± 7.0, the “Vomits (360 min)” value came to 0.3 ± 0.2 and the “Total Events” value was found to be 11.5 ± 7.2. Further, in assay [1] (setting [5]), the “Latency” value is reported as 313 ± 32 min, the “Retches (360 min)” value was 2.4 ± 1.6, the “Vomits (360 min)” value is listed as 0.0 ± 0.0 and the “Total Events” value amounted to 2.4 ± 1.6. In assay [1], the “Effect on latency of the first emetic response (in words)” value is on record as “increase in the latency of the first emetic response” and the “Effect on number of cisplatin-induced emetic events (in words)” value is given as “dose-dependently reduced the number of emetic events”.
